Test: AQMN content before and after freeze drying
Type: physicochemical
Conditions: 40 mg/ml, 10 mM sodium phosphate buffer pH 7.0
Method: Formulated AQ4N material was prepared at 40 mg/ml in 10 mM sodium phosphate buffer at pH 7.0. A portion of this solution was filled into ampoules and the remained into vials and freeze dried according to the cycle as specified in Tables 9 and 10.
The AQMN content of the samples before and after freeze drying (ampoule fill and vial fill, respectively) were measured as shown in Table 11.

C[N+](C)([O-])CCNc1ccc(NCC[N+](C)(C)[O-])c2c1C(=O)c1c(O)ccc(O)c1C2=O [AQ4N raw material]
AQMN content (% peak area w.r.t. std.): 22.6%

— US20070027136A1, “Formulations of anthraquinone derivatives” (priority 2003, published 2007)
